{"source": "PubChem BioAssay AID1259407", "about": "(Chemical Carcinogenesis Research Information System (CCRIS), 2018)", "test_system": "CCRIS mutagenicity, Ames/micronucleus/aberration tests", "assay": "CCRIS mutagenicity studies", "key": {"[1]": {"conditions": "Test System: AMES SALMONELLA TYPHIMURIUM, Strain/Indicator: TA98, Metabolic Activation: NONE, Method: STANDARD PLATE"}, "[2]": {"conditions": "Test System: AMES SALMONELLA TYPHIMURIUM, Strain/Indicator: TA100, Metabolic Activation: NONE, Method: STANDARD PLATE"}}, "note": "The source made the active and inactive calls. No rule for the calls is given here."}
{"molecule": "C=CCOC(=O)CC(C)C", "values": [{"measurement": "mutagenic call", "setting": "End Point: IN VITRO CHROMOSOMAL ABERRATIONS, Test System: CHO CELLS, Metabolic Activation: NONE", "value": "inactive; negative"}, {"measurement": "mutagenic call", "setting": "Test System: AMES SALMONELLA TYPHIMURIUM, Strain/Indicator: TA98, Metabolic Activation: HAMSTER, LIVER, S-9, AROCLOR 1254, Method: PREINCUBATION", "value": "inactive; negative"}, {"measurement": "mutagenic call", "setting": "Test System: AMES SALMONELLA TYPHIMURIUM, Strain/Indicator: TA98, Metabolic Activation: NONE, Method: PREINCUBATION", "value": "inactive; negative"}, {"measurement": "mutagenic call", "setting": "Test System: AMES SALMONELLA TYPHIMURIUM, Strain/Indicator: TA98, Metabolic Activation: RAT, LIVER, S-9, AROCLOR 1254, Method: PREINCUBATION", "value": "inactive; negative"}, {"measurement": "mutagenic call", "setting": "Test System: AMES SALMONELLA TYPHIMURIUM, Strain/Indicator: TA100, Metabolic Activation: HAMSTER, LIVER, S-9, AROCLOR 1254, Method: PREINCUBATION", "value": "inactive; negative"}, {"measurement": "mutagenic call", "setting": "Test System: AMES SALMONELLA TYPHIMURIUM, Strain/Indicator: TA100, Metabolic Activation: NONE, Method: PREINCUBATION", "value": "inactive; negative"}, {"measurement": "mutagenic call", "setting": "Test System: AMES SALMONELLA TYPHIMURIUM, Strain/Indicator: TA100, Metabolic Activation: RAT, LIVER, S-9, AROCLOR 1254, Method: PREINCUBATION", "value": "inactive; negative"}, {"measurement": "mutagenic call", "setting": "Test System: AMES SALMONELLA TYPHIMURIUM, Strain/Indicator: TA1535, Metabolic Activation: HAMSTER, LIVER, S-9, AROCLOR 1254, Method: PREINCUBATION", "value": "inactive; negative"}, {"measurement": "mutagenic call", "setting": "Test System: AMES SALMONELLA TYPHIMURIUM, Strain/Indicator: TA1535, Metabolic Activation: NONE, Method: PREINCUBATION", "value": "inactive; negative"}, {"measurement": "mutagenic call", "setting": "Test System: AMES SALMONELLA TYPHIMURIUM, Strain/Indicator: TA1535, Metabolic Activation: RAT, LIVER, S-9, AROCLOR 1254, Method: PREINCUBATION", "value": "inactive; negative"}, {"measurement": "mutagenic call", "setting": "Test System: AMES SALMONELLA TYPHIMURIUM, Strain/Indicator: TA1537, Metabolic Activation: HAMSTER, LIVER, S-9, AROCLOR 1254, Method: PREINCUBATION", "value": "inactive; negative"}, {"measurement": "mutagenic call", "setting": "Test System: AMES SALMONELLA TYPHIMURIUM, Strain/Indicator: TA1537, Metabolic Activation: NONE, Method: PREINCUBATION", "value": "inactive; negative"}, {"measurement": "mutagenic call", "setting": "Test System: AMES SALMONELLA TYPHIMURIUM, Strain/Indicator: TA1537, Metabolic Activation: RAT, LIVER, S-9, AROCLOR 1254, Method: PREINCUBATION", "value": "inactive; negative"}]}
{"molecule": "CC(=O)[O-].CC(=O)[O-].O.O.O.[Pb+2]", "values": [{"measurement": "mutagenic call", "setting": "End Point: IN VITRO MICRONUCLEUS, Test System: HAMSTER V79 CELLS, Metabolic Activation: NONE", "value": "active; positive (aneugenic above 0.05 um)"}, {"measurement": "mutagenic call", "setting": "End Point: IN VIVO MICRONUCLEUS, Test System: BLOOD ERYTHROCYTES AND RETICULOCYTES, Species: RAT, Strain/Sex: WISTAR/MALE, FEMALE (SUCKLING), Route: IP INJECTION", "value": "inactive; negative"}, {"measurement": "mutagenic call", "setting": "End Point: IN VIVO MICRONUCLEUS, Test System: RETICULOCYTES, ERYTHROCYTES, Species: RAT, Strain/Sex: WISTAR/MALE, FEMALE (SUCKLING), Route: ORAL", "value": "active; positive"}, {"measurement": "mutagenic call", "setting": "End Point: In vivo micronucleus, Test System: Bone marrow polychromatic erythrocytes, Species: Rat, Strain/Sex: Wistar/Male, female, Route: Oral", "value": "active; positive"}]}
{"molecule": "c1ccc(-c2nc(-c3ccccc3)c(-c3ccccc3)[nH]2)cc1", "values": [{"measurement": "mutagenic call", "setting": "[1]", "value": "active; positive"}, {"measurement": "mutagenic call", "setting": "Test System: AMES SALMONELLA TYPHIMURIUM, Strain/Indicator: TA98, Metabolic Activation: RAT LIVER S-9, 3-METHYLCHOLANTHRENE, SODIUM PHENOBARBITAL, Method: STANDARD PLATE", "value": "inactive; negative"}, {"measurement": "mutagenic call", "setting": "[2]", "value": "active; positive"}, {"measurement": "mutagenic call", "setting": "Test System: AMES SALMONELLA TYPHIMURIUM, Strain/Indicator: TA100, Metabolic Activation: RAT LIVER S-9, 3-METHYLCHOLANTHRENE, SODIUM PHENOBARBITAL, Method: STANDARD PLATE", "value": "inactive; negative"}]}
{"molecule": "O.O.O.O=C([O-])[C@H]([O-])[C@@H]([O-])C(=O)[O-].O=C([O-])[C@H]([O-])[C@@H]([O-])C(=O)[O-].[K+].[K+].[Sb+3].[Sb+3]", "values": [{"measurement": "mutagenic call", "setting": "Test System: AMES SALMONELLA TYPHIMURIUM, Strain/Indicator: TA98, Metabolic Activation: HAMSTER, LIVER, S-9, AROCLOR 1254, Method: STANDARD PLATE", "value": "inactive; negative"}, {"measurement": "mutagenic call", "setting": "[1]", "value": "inactive; negative"}, {"measurement": "mutagenic call", "setting": "Test System: AMES SALMONELLA TYPHIMURIUM, Strain/Indicator: TA98, Metabolic Activation: RAT, LIVER, S-9, AROCLOR 1254, Method: STANDARD PLATE", "value": "inactive; negative"}, {"measurement": "mutagenic call", "setting": "Test System: AMES SALMONELLA TYPHIMURIUM, Strain/Indicator: TA100, Metabolic Activation: HAMSTER, LIVER, S-9, AROCLOR 1254, Method: STANDARD PLATE", "value": "inactive; negative"}, {"measurement": "mutagenic call", "setting": "[2]", "value": "inactive; negative"}, {"measurement": "mutagenic call", "setting": "Test System: AMES SALMONELLA TYPHIMURIUM, Strain/Indicator: TA100, Metabolic Activation: RAT, LIVER, S-9, AROCLOR 1254, Method: STANDARD PLATE", "value": "inactive; negative"}, {"measurement": "mutagenic call", "setting": "Test System: AMES SALMONELLA TYPHIMURIUM, Strain/Indicator: TA1535, Metabolic Activation: HAMSTER, LIVER, S-9, AROCLOR 1254, Method: STANDARD PLATE", "value": "inactive; negative"}, {"measurement": "mutagenic call", "setting": "Test System: AMES SALMONELLA TYPHIMURIUM, Strain/Indicator: TA1535, Metabolic Activation: NONE, Method: STANDARD PLATE", "value": "inactive; negative"}, {"measurement": "mutagenic call", "setting": "Test System: AMES SALMONELLA TYPHIMURIUM, Strain/Indicator: TA1535, Metabolic Activation: RAT, LIVER, S-9, AROCLOR 1254, Method: STANDARD PLATE", "value": "inactive; negative"}, {"measurement": "mutagenic call", "setting": "Test System: AMES SALMONELLA TYPHIMURIUM, Strain/Indicator: TA1537, Metabolic Activation: HAMSTER, LIVER, S-9, AROCLOR 1254, Method: STANDARD PLATE", "value": "inactive; negative"}, {"measurement": "mutagenic call", "setting": "Test System: AMES SALMONELLA TYPHIMURIUM, Strain/Indicator: TA1537, Metabolic Activation: NONE, Method: STANDARD PLATE", "value": "inactive; negative"}, {"measurement": "mutagenic call", "setting": "Test System: AMES SALMONELLA TYPHIMURIUM, Strain/Indicator: TA1537, Metabolic Activation: RAT, LIVER, S-9, AROCLOR 1254, Method: STANDARD PLATE", "value": "inactive; negative"}, {"measurement": "mutagenic call", "setting": "Test System: AMES SALMONELLA TYPHIMURIUM, Strain/Indicator: TA1538, Metabolic Activation: HAMSTER, LIVER, S-9, AROCLOR 1254, Method: STANDARD PLATE", "value": "inactive; negative"}, {"measurement": "mutagenic call", "setting": "Test System: AMES SALMONELLA TYPHIMURIUM, Strain/Indicator: TA1538, Metabolic Activation: NONE, Method: STANDARD PLATE", "value": "inactive; negative"}, {"measurement": "mutagenic call", "setting": "Test System: AMES SALMONELLA TYPHIMURIUM, Strain/Indicator: TA1538, Metabolic Activation: RAT, LIVER, S-9, AROCLOR 1254, Method: STANDARD PLATE", "value": "inactive; negative"}, {"measurement": "mutagenic call", "setting": "Test System: MOUSE LYMPHOMA, Strain/Indicator: L5178Y (TK+/TK-), Metabolic Activation: NONE, Method: SUSPENSION/PLATE", "value": "active; positive. reevaluation of results: positive"}, {"measurement": "mutagenic call", "setting": "Test System: MOUSE LYMPHOMA, Strain/Indicator: L5178Y (TK+/TK-), Metabolic Activation: RAT, LIVER, S-9, AROCLOR 1254, Method: SUSPENSION/PLATE", "value": "active; positive. reevaluation of results: positive"}]}
